In data set [1] the test system is A549. Conditions: cited from earlier work.
Data set [2] has as its system HeLa. To be noted: cited from earlier work.
Data set [3] relates to tubulin. Conditions: cited from earlier work.
The test system of data set [4] is Bovine brain tubulin. The experiment in a line: Inhibition of [3H]colchicine binding to tubulin. To be noted: tubulin 0.5 µM, [3H]colchicine 5 µM, compound 5 µM. On the procedure: (§1) Bovine brain tubulin was purified as described previously. To evaluate the effects of the compounds on tubulin assembly in vitro [35], varying concentrations were preincubated with 10 μM tubulin in 0.8 M monosodium glutamate (pH 6.6) at 30 °C and the reaction mixtures then cooled to 0 °C. After addition of GTP, the mixtures were transferred to 0 °C cuvettes in Beckman Coulter (Brea, CA, USA) DU-7400/DU-7500 recording spectrophotometers equipped with electronic temperature controllers and warmed to 30 °C, and the assembly of tubulin was observed turbidimetrically. […] Inhibition of colchicine binding to tubulin was measured as described before, except that the reaction mixtures contained 0.5 μM tubulin and 5 μM each of [^3H]colchicine and test compound. Only one DEAE-cellulose filter was used per sample, and filtration was by gravity.

In data set [5] the test system is Bovine brain tubulin. Put plainly: Inhibition of tubulin polymerization. It counts as biochemical. Conditions: for IC50: tubulin at 10 μM, read-out: Tubulin Assembly IC50 ± SD. As to the method:
as §1

Data set [6] deals with A549, MDA-MB-231, HeLa, HT-29 and Jurkat cancer cell lines. The experiment in a line: Antiproliferative activity over the panel of cancer cell lines. It counts as cell-based, human. As to the method: Colon adenocarcinoma (HT-29) and T-cell leukemia (Jurkat) cells were grown in RPMI-1640 medium (Gibco, Milano, Italy). Promyelocytic leukemia cells (HL-60), non-small cell lung carcinoma (A549), cervix carcinoma (HeLa) and breast adenocarcinoma (MDA-MB-231) cells were grown in DMEM medium (Gibco, Milano, Italy). Both media were supplemented with 115 units/mL of penicillin G (Gibco, Milano, Italy), 115 μg/mL of streptomycin (Invitrogen, Milano, Italy) and 10% fetal bovine serum (Invitrogen, Milano, Italy). All the cell lines used were purchased from the American Type Culture Collection (ATCC, Manassas, VA, USA). Stock solutions (10 mM) of the compounds were obtained by dissolving them in DMSO.
The cells were seeded in 96-well plates at the appropriate density for each cell line. After 24 h, the cells were treated by performing serial 5-fold dilutions of the tested compounds starting from a concentration of 10 μM. All experimental conditions were tested in triplicate for statistical analysis. The plates were incubated for 72 h at 37 °C in a humidified 5% CO2 atmosphere. At the end of the incubation period, 10 μL of 100 μg/mL resazurin solution was added to each well; then, the plate was re-incubated for 3–4 h. The fluorescence of the wells in each plate was monitored using a Spark 10 M spectrophotometer (Tecan Group Ltd., Mannedorf, Switzerland) with a 535 nm excitation wavelength and a 600 nm emission wavelength.

Data set [7] deals with HT-29. Put plainly: Antiproliferative assay (resazurin, 72 h). Conditions: Homo sapiens, HT-29; Table 1; mean ± SE; 72 h. Format: cell-based, human. In short, it runs like this:
(§2)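 HT-29 cells were cultured in RPMI-1640, while MDA-MB-231, A549 and HeLa were cultured in DMEM, both with 10% FBS. Cells were treated 24 h after seeding with 5-fold serial dilutions starting at 10 μM, in triplicate, and incubated for 72 h at 37 °C. Resazurin fluorescence was read at ex 535/em 600 nm.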

Data set [8] deals with Jurkat. Put plainly: Antiproliferative assay (resazurin, 72 h). Format: cell-based, human. To be noted: Homo sapiens, Jurkat; Table 1; mean ± SE; 72 h. In short, it runs like this: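 Jurkat T-cell leukemia cells, grown in RPMI-1640 containing 10% fetal bovine serum, 115 units/mL penicillin G and 115 μg/mL streptomycin, were plated in 96-well plates. After 24 h they received serial 5-fold dilutions of test compounds starting at 10 μM, in triplicate, and were kept 72 h at 37 °C in 5% CO2.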

Data set [9] concerns HeLa. The experiment in a line: Antiproliferative assay (resazurin, 72 h). It counts as cell-based, human. Conditions: Homo sapiens, HeLa, Table 1, mean ± SE. In short, it runs like this:
as §2

Data set [10] concerns A549. Put plainly: Antiproliferative assay (resazurin, 72 h). It counts as cell-based, human. To be noted: Homo sapiens, A549, Table 1, mean ± SE. Put shortly: as §2
For data set [11], the system named is MDA-MB-231. Put plainly: Antiproliferative assay (resazurin, 72 h). Format: cell-based, human. Conditions: for IC50: Homo sapiens, MDA-MB-231, Table 1, mean ± SE, 72 h. Put shortly:
as §2

Where [12] appears, read: Homo sapiens, all five lines, read-out: IC50 values against all five lines.
Setting [13] is: Homo sapiens, range over the five tumor lines, read-out: IC50 values, range over the cell lines.
Where [14] appears, read: read-out: IC50 (compared with 8u on A549).

SMILES strings stand for the structures. Where two headings read alike, the source gives them in different places.

As to `COc1cc(-c2nc3nc(C)c(C(C)=O)c(-c4ccc([N+](=O)[O-])cc4)n3n2)cc(OC)c1OC` [Compound 4], the IC50 in [1] (read-out: IC50 A549) was 1020 nM; in [2] it was 750 nM. In addition, the “inhibition of tubulin assembly” value in data set [3] (at 10 μM) is given as 40%.
As to `COc1ccc(-c2c(C(C)=O)c(C)nc3nc(-c4cc(OC)c(OC)c(OC)c4)nn23)cc1[N+](=O)[O-]` [Compound 5], the IC50 was 16000 nM in [1] (read-out: IC50 A549), 10000 nM in data set [2] and 9900 nM in data set [3] (read-out: IC50 antitubulin activity).
In the case of `COc1ccc(-c2nc3nc(C)c(C(C)=O)c(-c4cc(OC)c(OC)c(OC)c4)n3n2)cc1O` [Compound 6], the IC50 in data set [2] was 60 nM. Also, the “fold more powerful than CA-4, tubulin polymerization” value in data set [3] is given as 3 fold.
As for `COc1cc(Nc2cc(C)nc3nc(NCc4ccc(Cl)cc4)nn23)cc(OC)c1OC` [Compound 7n, N^2-(4-Chlorobenzyl)-5-methyl-N^7-(3,4,5-trimethoxyphenyl)-[1,2,4]triazolo [1,5-a]pyrimidine-2,7-diamine], the melting point is 140 to 142 °C. The “Colchicine Binding % Inhibition ± SD” value in data set [4] was 30 ± 0.3%. Also, the IC50 in data set [5] turned out to be 390 ± 60 nM. Moreover, in data set [6] (setting [12]), the concentration for half-maximal inhibition (IC50) was less than 1000 nM. The IC50 in data set [6] (setting [13]) fell in the range of 31 to 323 nM. Also, the “fold increase in antiproliferative activity vs 7l” value in data set [6] (four of the five cell lines) is reported as 17–60 fold. Besides, inhibition in data set [7] was half-maximal at 54 ± 10 nM (IC50). In data set [8], the IC50 amounted to 320 ± 19 nM. Further, in [9], the 50% inhibitory concentration (IC50) came to 31 ± 10 nM. This compound gave an IC50 in [10] of 110 ± 22 nM. This compound returned a half-maximal inhibitory concentration (IC50) in data set [11] of 190 ± 20 nM. Further, the “fold reduction in activity vs 7l” value in data set [11] (MDA-MB-231 cells) was determined as 3 fold.
For `COc1cc(Nc2cc(C)nc3nc(NCc4ccc(C)cc4)nn23)cc(OC)c1OC` [Compound 7p, 5-Methyl-N2-(4-methylbenzyl)-N7-(3,4,5-trimethoxyphenyl)-[1,2,4]triazolo [1,5-a]pyrimidine-2,7-diamine], the melting point was in the range of 146 to 148 °C. The “Colchicine Binding % Inhibition ± SD” value in [4] is reported as 27 ± 3%. The IC50 in data set [5] is 660 ± 100 nM. The half-maximal inhibitory concentration (IC50) in [6] (setting [12]) was less than 1000 nM. Besides, the concentration for half-maximal inhibition (IC50) in [6] (setting [13]) lay in the range of 60 to 427 nM. In [6] (all cancer cell lines), the “fold more potent than 7g” value was 2–9 fold. Besides, the “fold less active than 7n” value in [6] (cell lines other than Jurkat) is given as 2–4 fold. In addition, the IC50 in [6] (range over the five tumor lines, read-out: IC50 values, range over the cell lines) was 60 to 420 nM. The same compound returned a half-maximal inhibitory concentration (IC50) in data set [7] of 110 ± 20 nM. The IC50 in data set [8] was determined as 430 ± 1 nM. The IC50 in data set [9] stood at 60 ± 10 nM. This compound also registered a 50% inhibitory concentration (IC50) in data set [10] of 420 ± 70 nM. In data set [11], this compound had an IC50 of 301 ± 40 nM.
Compound `COc1cc(Nc2cc(C)nc3nc(NCc4ccc5c(c4)OCO5)nn23)cc(OC)c1OC` [Compound 7y, N^2-(Benzo[d][1,3]dioxol-5-ylmethyl)-5-methyl-N^7-(3,4,5-trimethoxyphenyl)-[1,2,4]triazolo [1,5-a]pyrimidine-2,7-diamine] displayed a melting point of 190 to 192 °C. Also, the “Colchicine Binding % Inhibition ± SD” value in data set [4] came to 19 ± 05%. For the same compound, in data set [5], the “fold less active than CA-4, tubulin polymerization” value turned out to be 1.5 fold and the half-maximal inhibitory concentration (IC50) amounted to 1000 ± 200 nM. In addition, the concentration for half-maximal inhibition (IC50) in data set [6] (setting [12]) was less than 1000 nM. In addition, the IC50 in data set [6] (setting [13]) lay within 110 to 780 nM. The “fold increase in activity vs 7i” value in data set [6] (all five cell lines) was 6–28 fold. Also, the 50% inhibitory concentration (IC50) in [7] amounted to 170 ± 20 nM. In data set [8], the half-inhibitory concentration (IC50) worked out at 780 ± 90 nM. In data set [9], this compound returned an IC50 of 110 ± 10 nM. Besides, the concentration for half-maximal inhibition (IC50) in data set [10] amounted to 660 ± 30 nM. In data set [11], the IC50 was determined as 300 ± 20 nM.
As for `CO[C@H]1C(=O)[C@]2(C)[C@@H](OC)C[C@H]3OC[C@@]3(OC(C)=O)[C@H]2[C@H](OC(=O)c2ccccc2)[C@]2(O)C[C@H](OC(=O)[C@H](O)[C@@H](NC(=O)OC(C)(C)C)c3ccccc3)C(C)=C1C2(C)C` [cabazitaxel], the IC50 in data set [1] (setting [14]) is 15 nM.
As to `CC(=O)O[C@@]12CO[C@@H]1C[C@H](O)[C@@]1(C)C(=O)[C@H](O)C3=C(C)[C@@H](OC(=O)[C@H](O)[C@@H](NC(=O)OC(C)(C)C)c4ccccc4)C[C@@](O)([C@@H](OC(=O)c4ccccc4)[C@H]21)C3(C)C` [docetaxel], the IC50 in data set [1] (setting [14]) is 19.5 nM.
For `COc1cccc2c1C(=O)c1c(O)c3c(c(O)c1C2=O)C[C@@](O)(C(=O)CO)C[C@@H]3O[C@H]1C[C@H](N)[C@H](O)[C@H](C)O1` [doxorubicin], the IC50 in [1] (setting [14]) is 11600 nM.
As to `CC(=O)O[C@H]1C(=O)[C@@]2(C)[C@H]([C@H](OC(=O)c3ccccc3)[C@]3(O)C[C@H](OC(=O)[C@H](O)[C@@H](NC(=O)c4ccccc4)c4ccccc4)C(C)=C1C3(C)C)[C@]1(OC(C)=O)CO[C@@H]1C[C@@H]2O` [paclitaxel], the half-inhibitory concentration (IC50) in data set [1] (setting [14]) was 3.5 nM.

The values are drawn from PMC9230136 (Pharmaceutics, 2022).
